US11780845B2 (Relay Therapeutics, Inc., priority 2019, dated 2023)

Molecular target: FGFR2 (Homo sapiens (Human), UniProt P21802)
Assay: FGFR2 Biochemical Caliper Assay
Experimental: Compounds of the present invention were also tested in a FGFR2 Biochemical Caliper Assay. Compounds were prepared in 10 mM DMSO solution and serially diluted into 11 concentrations by 3-fold dilution. […] 5 uL of ATP solution (100 uM) was added to start the reaction and the plate was incubated for 90 minutes, then 70 uL of stopping buffer (0.5M EDTA) was added to terminate the reaction. Each well was analyzed using EZ reader.

Sequence of FGFR2 (P21802 22-821): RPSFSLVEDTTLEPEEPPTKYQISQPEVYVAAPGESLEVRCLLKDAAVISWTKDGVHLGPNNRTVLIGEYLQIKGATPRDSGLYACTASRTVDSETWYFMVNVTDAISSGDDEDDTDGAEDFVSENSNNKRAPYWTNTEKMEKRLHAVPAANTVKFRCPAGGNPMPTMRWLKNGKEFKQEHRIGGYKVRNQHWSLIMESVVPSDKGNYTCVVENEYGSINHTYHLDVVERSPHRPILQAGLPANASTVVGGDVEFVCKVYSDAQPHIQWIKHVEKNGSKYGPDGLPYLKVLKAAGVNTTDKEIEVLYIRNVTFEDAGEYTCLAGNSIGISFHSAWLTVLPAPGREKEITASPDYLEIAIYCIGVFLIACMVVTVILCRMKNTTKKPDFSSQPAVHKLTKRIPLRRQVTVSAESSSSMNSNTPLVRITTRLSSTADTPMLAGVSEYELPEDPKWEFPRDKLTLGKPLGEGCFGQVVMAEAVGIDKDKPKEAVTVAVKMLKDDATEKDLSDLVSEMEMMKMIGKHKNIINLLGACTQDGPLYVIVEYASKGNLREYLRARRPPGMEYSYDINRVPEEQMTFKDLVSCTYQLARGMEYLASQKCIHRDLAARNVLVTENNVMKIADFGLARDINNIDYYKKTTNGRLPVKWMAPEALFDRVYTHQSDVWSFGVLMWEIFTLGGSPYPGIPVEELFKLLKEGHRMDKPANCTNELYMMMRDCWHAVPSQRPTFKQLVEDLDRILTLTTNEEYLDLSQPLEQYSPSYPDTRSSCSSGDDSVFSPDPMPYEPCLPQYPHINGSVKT

Compound | IC50
C=C(C)C(=O)Nc1ccc(-c2c(-c3ccc(Oc4nccc(C)n4)c(COC)c3)c3c(N)ncnc3n2C)cc1 [Example 501] | 1 to 100 µM
Cn1c(-c2ccc(N3CC=CS3(=O)=O)cc2)c(-c2ccc(C(=O)N3CCCC3)cc2)c2c(N)ncnc21 [Example 556] | 0.25 to 1 µM
C=C(C)C(=O)Nc1ccc(-c2c(-c3ccc(Oc4cccc(C)n4)cc3)c3c(N)ncnc3n2C)cc1COC [Example 403] | 0.1 to 0.25 µM
C=C(C)C(=O)Nc1ccc(-c2c(-c3ccc(OCc4ccccc4)nc3)c3c(N)ncnc3n2C)cc1 [Example 138] | 1 to 100 µM
C=C(C)C(=O)Nc1ccc(-c2c(C3=CC[C@H](C(=O)N4CC[C@@H](CO)C4)CC3)c3c(N)ncnc3n2C)cc1 (single isomer, unassigned) [Example 575] | 1 to 100 µM
C=C(C)C(=O)Nc1ccc(-c2c(-c3ccc(C(=O)N(C)C4CCN(C)C4=O)cc3)c3c(N)ncnc3n2C)cc1 (stereo not drawn) [Example 390] | 1 to 100 µM
C=C(C)C(=O)Nc1ccc(-c2c(-c3ccc(C(=O)NCCF)cc3)c3c(N)ncnc3n2C)cc1 [Example 363] | < 0.1 µM
C=C(C)C(=O)Nc1ccc(-c2c(-c3ccc(-c4cocn4)cc3)c3c(N)ncnc3n2C)cc1 [Example 278] | 0.25 to 1 µM
Cn1c(-c2ccc(NC(=O)C3=CCC3)cc2)c(C2=CC[C@H](C(=O)N3CCCC3)CC2)c2c(N)ncnc21 (single isomer, unassigned) [Example 579] | 0.25 to 1 µM
C=CC(=O)Nc1ccc(-c2c(-c3ccc(N(C)c4ncccn4)cc3)c3c(N)ncnc3n2C)cc1 [Example 61] | < 0.1 µM
CCC(=O)Nc1ccc(-c2c(-c3ccc(Oc4ccccn4)c(OC)c3)c3c(N)ncnc3n2C)cc1 [Example 67] | 1 to 100 µM
C=C(C)C(=O)Nc1ccc(-c2c(-c3ccc(Oc4ncc(CO)cn4)c(OC)c3)c3c(N)ncnc3n2C)cc1 [Example 65] | 1 to 100 µM
C=C(C)C(=O)Nc1ccc(-c2c(-c3ccc(Cc4ncccn4)c(OC)c3)c3c(N)ncnc3n2C)cc1 [Example 106] | 1 to 100 µM
C=C(C)C(=O)Nc1ccc(-c2c(-c3ccc(C(=O)N4CCCC4)cc3)c3c(N)ncnc3n2C)c(C2CC2)c1 [Example 478] | 0.1 to 0.25 µM
C=C(C)C(=O)Nc1ccc(-c2c(-c3ccc(-c4nnc(C(F)(F)F)o4)cc3)c3c(N)ncnc3n2C)cc1 [Example 286] | 1 to 100 µM
C=C(C)C(=O)Nc1ccc(-c2c(-c3ccc(C(=O)N4CCCC4)cc3)c3c(N)ncnc3n2C)c([C@H]2CCCO2)c1 (single isomer, unassigned) [Example 509] | 0.25 to 1 µM
C=CC(=O)Nc1ccc(-c2c(-c3ccc(OC)c(OC)c3)c3c(N)ncnc3n2C)cc1 [Example 46] | < 0.1 µM

Compound | IC50
C/C(=C\CN(C)C)C(=O)Nc1ccc(-c2c(-c3ccc(C(=O)N4CCCC4)cc3)c3c(N)ncnc3n2C)cc1 [Example 553] | 0.25 to 1 µM
C=C(C)C(=O)Nc1ccc(-c2c(C3=CC[C@@H](C(=O)N4CC[C@@H](F)C4)CC3)c3c(N)ncnc3n2C)cc1 (single isomer, unassigned) [Example 591] | 0.1 to 0.25 µM
C=C(C)C(=O)Nc1ccc(-c2c(-c3ccc(C(=O)N4CCCC4)cc3Cl)c3c(N)ncnc3n2C)cc1 [Example 587] | 1 to 100 µM
C=C(C)C(=O)Nc1ccc(-c2c(-c3ccc(Oc4ccc(Cl)cn4)cc3)c3c(N)ncnc3n2C)cc1 [Example 97] | 0.25 to 1 µM
C=C(C)C(=O)Nc1ccc(-c2c(C3=CC[C@@H](C(=O)N4CC[C@@H](OC)C4)CC3)c3c(N)ncnc3n2C)cc1 (single isomer, unassigned) [Example 593] | 0.25 to 1 µM
C=C(C)C(=O)Nc1ccc(-c2c(-c3ccc(Oc4ncc(N(C)C)cn4)c(F)c3)c3c(N)ncnc3n2C)cc1 [Example 455] | 0.25 to 1 µM
C=CC(=O)Nc1ccc(-c2c(-c3ccc(Oc4ncccn4)c(CO)c3)c3c(N)ncnc3n2C)cc1 [Example 71] | 0.25 to 1 µM
C=CC(=O)Nc1ccc(-c2c(-c3ccc(C(=O)c4ccccc4C)c(OC)c3)c3c(N)ncnc3n2C)cc1 [Example 81] | < 0.1 µM
C=C(C)C(=O)Nc1ccc(-c2c(-c3ccc(C(=O)N4CCC5(COC5)C4)cc3)c3c(N)ncnc3n2C)cc1 [Example 271] | 1 to 100 µM
C=C(C)C(=O)Nc1ccc(-c2c(-c3ccc(Oc4ncc(Cl)cn4)c(F)c3)c3c(N)ncnc3n2C)cc1 [Example 115] | 0.25 to 1 µM
C=C(C)C(=O)Nc1ccc(-c2c(-c3ccc(S(C)(=O)=O)cc3C)c3c(N)ncnc3n2C)cc1 [Example 181] | 1 to 100 µM
C=C(C)C(=O)Nc1ccc(-c2c(-c3ccc(OCC)c(OCC)c3)c3c(N)ncnc3n2C)cc1 [Example 196] | 1 to 100 µM
C=C(C)C(=O)Nc1ccc(-c2c(-c3ccc4c(c3)CS(=O)(=O)C4)c3c(N)ncnc3n2C)cc1 [Example 193] | 1 to 100 µM
C=C(C)C(=O)Nc1ccc(-c2c(-c3ccc(Oc4ncc(CO)cn4)cc3)c3c(N)ncnc3n2C)cc1 [Example 64] | 1 to 100 µM
C=CC(=O)Nc1ccc(-c2c(-c3ccc(Nc4ncccn4)c(OC)c3)c3c(N)ncnc3n2C)cc1 [Example 56] | < 0.1 µM
C=C(C)C(=O)Nc1ccc(-c2c(C3=CCC(C(=O)NCC4CCC4)CC3)c3c(N)ncnc3n2C)cc1 (stereo not drawn) [Example 402] | 0.1 to 0.25 µM

More lines, now with the values ahead:

IC50 | Compound
1 to 100 µM | C=C(C)C(=O)Nc1ccc(-c2c([C@H]3CC[C@H](C(=O)N4CCCC4)CC3)c3c(N)ncnc3n2C)cc1 [Example 578]
0.1 to 0.25 µM | CC#CC(=O)Nc1ccc(-c2c(-c3cccc(OC)c3)c3c(N)ncnc3n2C)cc1 [Example 73]
1 to 100 µM | C=CC(=O)N[C@H]1CC[C@@H](c2c(-c3ccc(Oc4cccc(C)n4)c(OC)c3)c3c(N)ncnc3n2C)CC1 [Example 624]
0.25 to 1 µM | C=C(C)C(=O)Nc1ccc(-c2c(-c3ccc(C(=O)N4CC[C@@H](OC)C4)cc3)c3c(N)ncnc3n2C)cc1 [Example 252]
0.1 to 0.25 µM | C=C(C)C(=O)Nc1ccc(-c2c(-c3cc(N)c(Oc4ccccn4)c(F)c3)c3c(N)ncnc3n2C)cc1 [Example 127]
1 to 100 µM | C=C(C)C(=O)Nc1ccc(-c2c(-c3cccc(C(=O)N4CCCC4)c3)c3c(N)ncnc3n2C)cc1 [Example 183]
1 to 100 µM | C=C(C)C(=O)Nc1ccc(-c2c(-c3ccc(C(=O)N4CCCC4)cc3)c3c(N)ncnc3n2C)c(CN2CCOCC2)c1 [Example 486]
0.25 to 1 µM | C=C(C)C(=O)Nc1ccc(-c2c(-c3cccc(OC)c3)c3c(N)ncnc3n2C)cc1 [Example 55]
< 0.1 µM | C=CC(=O)Nc1ccc(-c2c(-c3ccc(Sc4ncccn4)c(OC)c3)c3c(N)ncnc3n2C)cc1 [Example 82]
0.1 to 0.25 µM | C=C(C)C(=O)Nc1ccc(-c2c(-c3ccc(C(=O)N(C)CC4(F)COC4)cc3)c3c(N)ncnc3n2C)c(F)c1 [Example 467]
< 0.1 µM | C=CC(=O)Nc1ccc(-c2c(-c3ccc(Oc4cncc(C)c4)c(OC)c3)c3c(N)ncnc3n2C)cc1 [Example 41]
1 to 100 µM | C=C(C)C(=O)Nc1ccc(-c2c(-c3ccc(Oc4ccc(Cl)cn4)c(O)c3)c3c(N)ncnc3n2C)cc1 [Example 119]
1 to 100 µM | C=C(C)C(=O)Nc1ccc(-c2c(-c3ccc(-c4nnn(C)n4)nc3)c3c(N)ncnc3n2C)cc1 [Example 132]
0.25 to 1 µM | C=C(C)C(=O)Nc1ccc(-c2c(-c3ccc4c(cnn4C(C)C)c3)c3c(N)ncnc3n2C)cc1 [Example 170]
1 to 100 µM | C=C(C)C(=O)Nc1ccc(-c2c(-c3cncc(CO)c3)c3c(N)ncnc3n2C)cc1 [Example 134]
